Molecules are shown by their SMILES.

The target of the first test is T1, human motilin receptor (GPR38) (Homo sapiens, UniProt O43193).
T1 construct: expressed in transfected cells; host or cells: CHO-K1
T1 sequence (O43193 whole entry): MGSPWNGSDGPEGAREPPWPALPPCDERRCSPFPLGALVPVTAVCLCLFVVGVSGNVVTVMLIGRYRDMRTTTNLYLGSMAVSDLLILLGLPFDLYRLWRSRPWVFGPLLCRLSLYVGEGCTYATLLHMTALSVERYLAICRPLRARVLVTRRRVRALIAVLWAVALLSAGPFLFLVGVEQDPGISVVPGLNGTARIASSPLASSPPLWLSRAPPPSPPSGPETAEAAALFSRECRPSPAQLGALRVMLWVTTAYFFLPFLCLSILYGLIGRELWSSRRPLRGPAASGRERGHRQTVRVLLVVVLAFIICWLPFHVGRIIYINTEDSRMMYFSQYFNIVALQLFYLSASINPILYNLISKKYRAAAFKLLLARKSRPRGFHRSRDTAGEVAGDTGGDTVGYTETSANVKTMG
As to the kind of experiment: GPR38 (Motilin Receptor) Functional Assay, NFAT-beta-lactamase reporter in CHO-K1 cells. It is filed as cell-based.
Conditions: not given
The procedure, abridged: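 CHO-K1 cells stably carrying NFAT-beta-lactamase reporter and human motilin receptor, 8000 cells/well, compound 4.5 h at 37° C. CCF4-AM loaded 2 h at room temperature; fluorescence read at ex 400 nm, em 465/540 nm. Agonist EC50 from sigmoidal dose-response curve.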
One may read the EC50 as the concentration at which the effect is half-maximal. High values mean lower potency in that assay, low ones higher potency in that assay. On to `CC1(C)C(=O)N(C2CCN(C(=O)[C@H](Cc3ccccc3C(F)(F)F)NC(=O)[C@@H]3CCCNC3)CC2)c2ccccc21` [Example 85, (R)-N-((S)-1-(4-(3,3-dimethyl-2-oxoindolin-1-yl)piperidin-1-yl)-1-oxo-3-(2-(trifluoromethyl)phenyl)propan-2-yl) piperidine-3-carboxamide], for which the EC50 was at most 10 nM. `CC1(C)C(=O)N(C2CCN(C(=O)[C@H](Cc3ccccc3Cl)NC(=O)[C@@H]3CCCNC3)CC2)c2ccccc21` [Example 86, (R)-N-((S)-3-(2-chloro-phenyl)-1-(4-(3,3-dimethyl-2-oxoindolin-1-yl)piperidin-1-yl)-1-oxo-propan-2-yl)piperidine-3-carboxamide] came in with an EC50 of at most 10 nM. Regarding `CC1(C)C(=O)N(C2CCN(C(=O)[C@H](Cc3ccc(Cl)cc3)NC(=O)[C@@H]3CCCNC3)CC2)c2ccccc21` [Example 87, (R)-N-((S)-3-(4-chloro-phenyl)-1-(4-(3,3-dimethyl-2-oxoindolin-1-yl)piperidin-1-yl)-1-oxopropan-2-yl)piperidine-3-carboxamide], the EC50 is at most 10 nM.

Consider `CN[C@H]1CCN(C(=O)N[C@@H](Cc2ccccc2C(F)(F)F)C(=O)N2CCC(N3C(=O)C(C)(C)c4ccccc43)CC2)C1` [Example 92, (S)-N-((S)-1-(4-(3,3-dimethyl-2-oxoindolin-1-yl)piperidin-1-yl)-1-oxo-3-(2-(trifluoromethyl)phenyl)propan-2-yl)-3-(methylamino)pyrrolidine-1-carboxamide], for which the EC50 was at most 10 nM. In turn, `CN[C@H]1CCN(C(=O)N[C@@H](Cc2ccccc2Cl)C(=O)N2CCC(N3C(=O)C(C)(C)c4ccccc43)CC2)C1` [Example 93, (S)-N-((S)-3-(2-chloro-phenyl)-1-(4-(3,3-dimethyl-2-oxoindolin-1-yl)piperidin-1-yl)-1-oxopropan-2-yl)-3-(methylamino)pyrrolidine-1-carboxamide] registered an EC50 of at most 10 nM. As to `CN[C@H]1CCN(C(=O)N[C@@H](Cc2ccc(Cl)cc2)C(=O)N2CCC(N3C(=O)C(C)(C)c4ccccc43)CC2)C1` [Example 94, (S)-N-((S)-3-(4-chloro-phenyl)-1-(4-(3,3-dimethyl-2-oxoindolin-1-yl)piperidin-1-yl)-1-oxopropan-2-yl)-3-(methylamino)pyrrolidine-1-carboxamide], the EC50 was at most 10 nM.

Staying with this test, now noted: ED50 (nM), Table 15; functional activity toward GPR38 (motilin receptor), (S) versus (R) amino acid linker.
Molecule `CC1(C)C(=O)N(C2CCN(C(=O)[C@@H](CCc3ccccc3)NC(=O)[C@@H]3CCCNC3)CC2)c2ccccc21` [Example 98] came in with an EC50 of 6210 nM. `CN[C@H]1CCN(C(=O)N[C@H](CCc2ccccc2)C(=O)N2CCC(N3C(=O)C(C)(C)c4ccccc43)CC2)C1` [Example 99, (S)—N—((R)-1-(4-(3,3-dimethyl-2-oxoindolin-1-yl)piperidin-1-yl)-1-oxo-4-phenylbutan-2-yl)-3-(methylamino)pyrrolidine-1-carboxamide] gave an EC50 of 488 nM.

Values taken from patent US8697877B2, “Oxyindole derivatives with motilin receptor agonistic activity” (RaQualia Pharma Inc., priority 2009, dated 2014).
